Test results from PMC10321576, “Cyclic peptides target the aromatic cage of a PHD-finger reader domain to modulate epigenetic protein function” (Chemical Science, 2023).
Peptide text beside a SMILES is read from it.

Assays:
ING2 PHD = target: T1, ING2 PHD (Homo sapiens, UniProt Q9H160); experiment: AlphaScreen displacement of H3 1-21K4me3-Bt; format: binding; settings: once at least in duplicate (Fig. 3c)
T1 construct: ING2 PHD
From the text: (§1) (14 pictures or pasted objects on this page, not shown here)

KDM5A PHD3 = target: T2, KDM5A PHD3 (Homo sapiens, UniProt P29375); experiment: AlphaScreen displacement of H3 1-21K4me3-Bt; format: binding; settings: once at least in duplicate (Fig. 3c)
T2 construct: KDM5A PHD3
T2 sequence (P29375 1607-1661 limits assumed): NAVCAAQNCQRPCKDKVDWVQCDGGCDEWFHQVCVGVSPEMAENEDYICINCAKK
From the text: as §1

DIDO PHD = target: T3, DIDO PHD (Homo sapiens, UniProt Q9BTC0); experiment: AlphaScreen displacement of H3 1-21K4me3-Bt; format: binding; settings: average of two independent experiments
T3 construct: DIDO PHD
T3 sequence (Q9BTC0 268-322 limits assumed): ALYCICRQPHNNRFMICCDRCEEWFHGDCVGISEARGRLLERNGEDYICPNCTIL
From the text: as §1

SPIN1 TTD = SPIN1 TTD (Homo sapiens, UniProt Q9Y657); experiment: AlphaScreen displacement of H3 1-21K4me3-Bt; format: binding; settings: once at least in duplicate (Fig. 3c)
Chain of SPIN1 TTD (Q9Y657 53-262 limits assumed): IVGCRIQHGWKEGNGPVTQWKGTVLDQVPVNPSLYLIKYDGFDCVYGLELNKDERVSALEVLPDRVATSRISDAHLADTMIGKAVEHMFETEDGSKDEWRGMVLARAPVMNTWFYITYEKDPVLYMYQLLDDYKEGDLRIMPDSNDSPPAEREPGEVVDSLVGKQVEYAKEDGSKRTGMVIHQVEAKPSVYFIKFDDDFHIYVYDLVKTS
From the text: as §1

TAF3 PHD = target: T4, TAF3 PHD (Homo sapiens, UniProt Q5VWG9); experiment: AlphaScreen displacement of H3 1-21K4me3-Bt; format: binding; settings: once at least in duplicate (Fig. 3c)
T4 construct: TAF3 PHD
T4 sequence (Q5VWG9 865-915 limits assumed): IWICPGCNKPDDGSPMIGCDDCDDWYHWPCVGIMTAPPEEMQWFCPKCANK
From the text: as §1

KDM7B Dual = target: T5, KDM7B Dual (Homo sapiens, UniProt Q9UPP1); experiment: ITC binding
T5 construct: Dual = PHD+JmjC; made in house
T5 sequence (Q9UPP1 37-483 limits assumed): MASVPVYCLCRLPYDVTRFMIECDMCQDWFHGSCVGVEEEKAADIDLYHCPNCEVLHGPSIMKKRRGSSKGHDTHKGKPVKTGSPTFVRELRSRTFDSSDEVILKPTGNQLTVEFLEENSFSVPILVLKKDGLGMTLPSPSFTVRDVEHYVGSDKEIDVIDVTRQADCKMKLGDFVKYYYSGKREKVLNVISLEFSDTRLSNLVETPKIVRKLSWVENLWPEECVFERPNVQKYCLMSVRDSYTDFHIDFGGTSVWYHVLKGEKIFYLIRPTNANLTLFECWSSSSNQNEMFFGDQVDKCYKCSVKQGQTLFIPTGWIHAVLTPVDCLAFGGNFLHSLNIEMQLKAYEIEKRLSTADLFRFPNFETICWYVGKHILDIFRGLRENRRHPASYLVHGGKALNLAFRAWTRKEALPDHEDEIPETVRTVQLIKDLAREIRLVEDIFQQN
Method: (§2) Figure S10. ITC results: Tabulated values from 1:1 binding model and conditions
(§3) ITC buffer = 50 mM HEPES, 100 mM NaCl, pH 7.4, 0.2 µm filtered), at 25 °C. Dual = PHD+JmjC. HisTrx
(§4) = His 6+thioredoxin tag, GST = glutathione S -transferase tag, ZB = Z -basic tag. Syringe contained
(§5) peptide solution in buffer. Cell contained protein solution in buffer.
(§6) (1 picture or pasted object on this page, not shown here)

HisTrx-DIDO PHD = target: T6, HisTrx-DIDO PHD (Homo sapiens, UniProt Q9BTC0); experiment: ITC binding; settings: 50 mM HEPES, 100 mM NaCl, pH 7.4, 25 °C; 1:1 binding model
T6 construct: HisTrx-DIDO PHD
Method: as §2, §3, §4, §5, §6

KDM7C PHD [1] = target: T7, KDM7C PHD (Homo sapiens, UniProt O75151); experiment: ITC binding; settings: for Kd: 1:1 binding model
T7 construct: KDM7C 1-67; made in house
T7 sequence (O75151 1-67): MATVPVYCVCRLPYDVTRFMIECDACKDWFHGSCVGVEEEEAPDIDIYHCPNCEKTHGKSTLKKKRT
Method: as §2, §3, §4, §5, §6

KDM7A dual domain = KDM7A dual domain (Homo sapiens, UniProt Q6ZMT4); experiment: MALDI-TOF-MS KDM7 activity assay (H3 peptide demethylation); format: biochemical; settings: from <5% without OC9
Chain of KDM7A dual domain (Q6ZMT4 38-480 limits assumed): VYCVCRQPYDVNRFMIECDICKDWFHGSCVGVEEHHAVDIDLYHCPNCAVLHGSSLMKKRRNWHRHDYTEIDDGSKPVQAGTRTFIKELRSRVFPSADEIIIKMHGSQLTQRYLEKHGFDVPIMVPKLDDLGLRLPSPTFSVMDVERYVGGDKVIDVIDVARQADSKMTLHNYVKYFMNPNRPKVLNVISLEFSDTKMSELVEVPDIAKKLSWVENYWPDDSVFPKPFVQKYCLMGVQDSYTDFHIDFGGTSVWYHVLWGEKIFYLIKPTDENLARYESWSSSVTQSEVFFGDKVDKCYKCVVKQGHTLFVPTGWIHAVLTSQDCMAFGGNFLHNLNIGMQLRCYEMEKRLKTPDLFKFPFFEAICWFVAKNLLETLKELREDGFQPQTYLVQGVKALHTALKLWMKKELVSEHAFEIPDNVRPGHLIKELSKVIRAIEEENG
Method: Fig. 5 KDM7 PHD-finger inhibition by OC9 modulates dual domain JmjC activity. (a) (i–iii) OC9 inhibits demethylation of H3K9me2, with or without K4me3, by KDM7B (0.4 μM) on H3 peptide (2.5 μM). […] (b) (i–iii) OC9 enhances demethylation of H3K4me3K9me2 by KDM7A (0.55 μM) on H3 peptide (2.5 μM), and (iv) enhances KDM7A (0.5 μM) demethylation of calf histone extracts (50 μg). […] Inset MALDI-TOF-MS overlays are from respective highest OC9 concentration points compared to DMSO alone. KDM7 PHD-finger only proteins had no demethylase activity (Fig. S40 ^†). Calf histone H3K9me2 was quantitated relative to H4 band intensities at each time point, normalised to DMSO at t = 0. Full Western blots available in Fig. S42. ^† Relative rates (Krel min^−1) from a one-phase decay model, average from N = 3 independent experiments. […] The enzyme heading of the panel (KDM7B / KDM7A) was put in front of them. / DMSO is the vehicle control. Its printed rates (0.30 min^-1 in a, 0.04 min^-1 in b) are included because they are printed with its name.
In contrast to KDM7B, KDM7A lacks activity against H3K4me3K9me2, but demethylates H3_1–21K9me2.[57] OC9, however, restored the activity of KDM7A against H3_1–21K4me3K9me2 from <5% to a level (∼30%) that approached demethylation on H3_1–21K9me2 with DMSO alone (∼40%) (Fig. 5b and S39 ^†). […]

KDM7A Dual (PHD+JmjC) = KDM7A Dual (PHD+JmjC) (Homo sapiens, UniProt Q6ZMT4); experiment: BLI binding; settings: 1:1 binding model
Chain of KDM7A Dual (PHD+JmjC) (Q6ZMT4 38-386 limits assumed): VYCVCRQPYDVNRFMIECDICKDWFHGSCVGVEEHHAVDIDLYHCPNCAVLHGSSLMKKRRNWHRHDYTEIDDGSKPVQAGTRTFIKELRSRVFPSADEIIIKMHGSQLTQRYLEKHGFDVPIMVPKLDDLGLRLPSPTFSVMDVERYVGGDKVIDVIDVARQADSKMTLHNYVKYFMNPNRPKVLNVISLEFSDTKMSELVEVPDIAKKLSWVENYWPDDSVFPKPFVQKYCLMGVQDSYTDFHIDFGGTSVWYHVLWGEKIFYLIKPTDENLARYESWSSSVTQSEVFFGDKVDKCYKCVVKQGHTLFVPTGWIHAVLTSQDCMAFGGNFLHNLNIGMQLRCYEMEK
From the text: (§7) Figure S2. BLI for KDM7 proteins with cyclic peptides.
(§8) BLI traces for b inding to KDM7 protein domains immobilised by C-terminal His -tag on Ni -NTA
(§9) biosensors, against cyclic peptides. Response trace for each peptide concentration is represented by
(§10) a different colour, with the fitted curves overlaid in black.
(§11) concentration plotted, with 2-fold dilutions thereafter. Dual domain = PHD+JmjC. […]
(§12) against KDM7 and other protein domains. t1/2 = half life (0.693 / Koff)
as §6

KDM7C Dual (PHD+JmjC) = KDM7C Dual (PHD+JmjC) (Homo sapiens, UniProt O75151); experiment: BLI binding; settings: 1:1 binding model
Chain of KDM7C Dual (PHD+JmjC) (O75151 1-353 limits assumed): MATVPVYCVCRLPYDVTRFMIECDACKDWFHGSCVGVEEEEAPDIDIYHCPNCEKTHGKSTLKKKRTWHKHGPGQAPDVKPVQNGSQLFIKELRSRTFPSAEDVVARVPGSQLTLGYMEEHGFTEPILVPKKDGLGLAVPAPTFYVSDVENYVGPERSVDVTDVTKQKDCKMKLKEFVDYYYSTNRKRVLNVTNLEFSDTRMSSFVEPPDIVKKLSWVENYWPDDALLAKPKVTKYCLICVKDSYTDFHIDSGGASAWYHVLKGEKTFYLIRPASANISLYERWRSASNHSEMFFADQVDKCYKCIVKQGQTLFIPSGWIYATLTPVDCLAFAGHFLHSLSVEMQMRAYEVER
From the text: as §7, §8, §9, §10, §11, §12, §6

KDM7A PHD = target: T8, KDM7A PHD (Homo sapiens, UniProt Q6ZMT4); experiment: BLI binding; settings: 1:1 binding model
T8 construct: KDM7A 38-98; made in house
T8 sequence (Q6ZMT4 38-98): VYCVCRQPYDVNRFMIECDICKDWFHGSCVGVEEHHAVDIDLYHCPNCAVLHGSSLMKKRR
From the text: as §7, §8, §9, §10, §11, §12, §6

KDM7C PHD [2] = target: T7, KDM7C PHD; experiment: BLI binding; settings: 1:1 binding model
From the text: as §7, §8, §9, §10, §11, §12, §6

[3] = His-tagged protein on Ni-NTA biosensors

T1 sequence (Q9H160 212-261 limits assumed): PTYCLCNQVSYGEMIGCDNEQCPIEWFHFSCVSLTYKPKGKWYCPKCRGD

CC(C)C[C@@H]1NC(=O)[C@H](Cc2ccc(O)cc2)NC(=O)[C@H](Cc2ccc(O)cc2)NC(=O)CSC[C@@H](C(N)=O)NC(=O)[C@H]([C@@H](C)O)NC(=O)[C@H](CCCNC(=N)N)NC(=O)[C@H](Cc2ccccc2)NC(=O)[C@H](C(C)C)NC(=O)[C@H](CO)NC(=O)[C@@H]2CCCN2C(=O)[C@H](Cc2ccc(O)cc2)NC(=O)[C@@H]2CCCN2C(=O)[C@H](Cc2c[nH]cn2)NC(=O)[C@H]([C@@H](C)O)NC1=O [OC9] (HELM PEPTIDE1{[O=C(C[*:3])[*:2]].Y.Y.L.T.H.P.Y.P.S.V.F.R.T.C.[am]}$PEPTIDE1,PEPTIDE1,1:R3-15:R3$$$V2.0)
IC50 (ING2 PHD): > 5000 nM | IC50 (KDM5A PHD3): > 5000 nM | AlphaScreen displacement IC50, DIDO PHD (DIDO PHD): no measurable affinity | IC50 (DIDO PHD): > 10000 nM | IC50 (SPIN1 TTD): > 2000 nM | IC50 (TAF3 PHD): > 5000 nM | Kd (KDM7B Dual; 50 mM HEPES, 100 mM NaCl, pH 7.4, 25 °C, 1:1 binding model): 10.5 nM | ITC ΔH, KDM7B Dual (KDM7B Dual; 25 °C): -46.0 ± 1.5 kJ mol -1 | ITC N, KDM7B Dual (KDM7B Dual; stoichiometry): 0.95 ± 0.02 | ITC KD, HisTrx-DIDO PHD (HisTrx-DIDO PHD): no measurable affinity | Kd (KDM7C PHD [1]; 50 mM HEPES, 100 mM NaCl, pH 7.4, 25 °C): 9.56 nM | Kd (KDM7C PHD [1]): 10 ± 4 nM | ITC ΔH, KDM7C PHD (KDM7C PHD [1]; 25 °C): -62.0 ± 1.0 kJ mol -1 | ITC N, KDM7C PHD (KDM7C PHD [1]; stoichiometry): 1.09 ± 0.01 | activity of KDM7A against H3_1–21K4me3K9me2 restored by OC9 (demethylation level) (KDM7A dual domain): ~30% | koff (KDM7A Dual (PHD+JmjC)): 0.0123 ± 0.0001 s⁻¹ | kon (KDM7A Dual (PHD+JmjC)): 289000 ± 3000 M⁻¹ s⁻¹ | Kd (KDM7A Dual (PHD+JmjC); [3]): 42.5 nM | koff (KDM7C Dual (PHD+JmjC)): 0.000137 ± 1e-06 s⁻¹ | kon (KDM7C Dual (PHD+JmjC)): 409000 ± 2000 M⁻¹ s⁻¹ | Kd (KDM7C Dual (PHD+JmjC); read-out: BLI pKD, KDM7C Dual (converted)): 0.316 nM | koff (KDM7A PHD): 0.00679 ± 2e-05 s⁻¹ | kon (KDM7A PHD): 358000 ± 3000 M⁻¹ s⁻¹ | Kd (KDM7A PHD; [3]): 19 nM | koff (KDM7C PHD [2]): 0.000483 ± 2e-06 s⁻¹ | kon (KDM7C PHD [2]): 463000 ± 2000 M⁻¹ s⁻¹ | Kd (KDM7C PHD [2]; [3]): 1.05 nM
